The target of one experiment is T1, DGKζ (Homo sapiens, UniProt Q13574).
T1 construct: His; purchased Signal Chem D30-10H
The experiment is described as follows: In vitro DGKζ inhibition assay (ADP-Glo). The experiment is classed as biochemical. Particulars: His-tagged human recombinant DGKζ 0.4 nM, 30 μM ATP, 20 μM DLG, 90 minute incubation. The protocol: (§1) The DGKα and DGKζ biochemical reactions were performed using His-tagged human recombinant enzymes (Signal Chem, DGKα, #D21-10BH; DGKζ, #D30-10H)) and DLG (Dilauroyl-sn-glycerol) lipid substrate (Signal Chem, #D430-59). ADP-Glo assay was performed using ADP-Glo™ kinase Assay kit (Promega, #V9104). The reactions were carried out in assay buffer containing 40 mM Tris, pH 7.5, 0.1% CHAPS, 0.1% Prionex, 40 mM NaCl, 5 mM MgCl2, 1 mM CaCl2, and 1 mM DTT. DGKα reactions contained 0.1 nM DGKα, 50 μM ATP, and 20 μM DLG. And DGKζ reactions contained 0.4 nM DGKζ, 30 μM ATP, and 20 μM DLG.
(§2) Compounds were added with top concentration of 2 mM with 11 point, 3-fold dilution series. Enzyme solution (contains 2×DGK enzyme concentration in 1× assay buffer) was added to the plate in 2 μL/well volume, followed by 2 μL/well of substrate solution (contains 2× concentration of ATP and DLG substrate in 1× assay buffer). Plates were then centrifuged for 1 min at 1200 RPM and sealed or lidded. For 4 μL reaction volume, test compounds were therefore diluted 100× to final top concentration of 20 μM. After 90 minute incubation, reactions were quenched by addition of 2 μL/well Promega ADP-Glo Reagent, followed by centrifugation and lidding. After 60 min incubation, 2 μL/well Promega Kinase Detection Reagent was added, plates centrifuged, and incubated for 30 min. Plates were then read using Luminescence method on BMG PHERAstar FSX plate reader. Percent inhibition was calculated and IC50s were determined using 4-parameter fit in Genedata Screener. Labcyte Echo acoustic dispenser was used for compound addition, and Formulatrix Tempest liquid handler was used for all reagent dispenses.

A further experiment has as its target T2, DGKα (Homo sapiens, UniProt P23743).
T2 construct: His; purchased Signal Chem D21-10BH
Nature of the experiment: In vitro DGKα inhibition assay (ADP-Glo). The experiment is classed as biochemical. Conditions: His-tagged human recombinant DGKα 0.1 nM, 50 μM ATP, 20 μM DLG, 90 minute incubation. The protocol:
as §1, §2

The structures appear in SMILES notation.

T1 sequence (Q13574 whole entry): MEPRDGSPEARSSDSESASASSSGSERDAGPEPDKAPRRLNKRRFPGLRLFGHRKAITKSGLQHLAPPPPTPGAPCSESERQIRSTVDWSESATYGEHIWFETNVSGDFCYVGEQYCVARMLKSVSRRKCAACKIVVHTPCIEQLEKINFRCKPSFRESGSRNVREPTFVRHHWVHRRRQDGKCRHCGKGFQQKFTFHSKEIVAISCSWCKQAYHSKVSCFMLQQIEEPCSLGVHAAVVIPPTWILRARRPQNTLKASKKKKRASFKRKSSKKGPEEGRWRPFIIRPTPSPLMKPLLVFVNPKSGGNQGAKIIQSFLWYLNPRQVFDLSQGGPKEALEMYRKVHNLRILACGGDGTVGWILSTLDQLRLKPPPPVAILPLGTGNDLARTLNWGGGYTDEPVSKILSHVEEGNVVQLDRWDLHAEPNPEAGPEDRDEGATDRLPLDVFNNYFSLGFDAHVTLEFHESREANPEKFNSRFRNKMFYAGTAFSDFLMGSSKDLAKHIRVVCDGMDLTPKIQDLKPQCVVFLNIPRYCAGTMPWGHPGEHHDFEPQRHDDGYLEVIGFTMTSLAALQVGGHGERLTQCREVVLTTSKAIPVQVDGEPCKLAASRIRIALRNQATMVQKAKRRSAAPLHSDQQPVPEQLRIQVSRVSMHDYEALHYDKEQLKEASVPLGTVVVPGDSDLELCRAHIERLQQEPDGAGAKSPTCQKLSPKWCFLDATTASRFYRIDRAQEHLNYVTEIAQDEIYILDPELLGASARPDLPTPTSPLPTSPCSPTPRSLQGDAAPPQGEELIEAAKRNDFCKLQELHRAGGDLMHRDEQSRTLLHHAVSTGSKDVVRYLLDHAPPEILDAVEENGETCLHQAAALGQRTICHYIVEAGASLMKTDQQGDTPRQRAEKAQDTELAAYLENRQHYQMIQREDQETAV
T2 sequence (P23743 whole entry): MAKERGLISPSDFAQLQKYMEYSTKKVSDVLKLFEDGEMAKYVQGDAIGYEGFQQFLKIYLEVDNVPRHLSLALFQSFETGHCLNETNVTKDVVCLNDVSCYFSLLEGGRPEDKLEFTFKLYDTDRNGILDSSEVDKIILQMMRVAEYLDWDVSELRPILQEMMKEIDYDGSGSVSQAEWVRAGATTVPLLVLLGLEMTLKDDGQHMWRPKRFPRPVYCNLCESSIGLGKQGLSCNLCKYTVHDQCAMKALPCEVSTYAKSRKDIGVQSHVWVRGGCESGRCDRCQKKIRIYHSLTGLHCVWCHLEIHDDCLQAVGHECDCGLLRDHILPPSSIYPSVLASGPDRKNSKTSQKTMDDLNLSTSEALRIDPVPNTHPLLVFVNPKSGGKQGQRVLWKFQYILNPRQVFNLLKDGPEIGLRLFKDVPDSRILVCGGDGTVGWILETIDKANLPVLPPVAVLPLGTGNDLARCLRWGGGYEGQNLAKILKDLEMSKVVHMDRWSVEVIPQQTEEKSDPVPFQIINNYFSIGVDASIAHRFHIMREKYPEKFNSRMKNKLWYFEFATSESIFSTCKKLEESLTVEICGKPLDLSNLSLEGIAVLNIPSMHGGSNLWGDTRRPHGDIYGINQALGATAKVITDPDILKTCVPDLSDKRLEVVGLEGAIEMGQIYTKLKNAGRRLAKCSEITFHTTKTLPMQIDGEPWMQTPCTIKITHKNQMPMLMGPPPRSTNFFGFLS

Broadly, the IC50 is the midpoint of a concentration-inhibition curve. As to `C[C@@H]1CN(c2nc3nncn3c3c2ncn3C[C@@H]2CCCO2)[C@@H](C)CN1Cc1ccc(C(F)(F)F)cc1` [Example 40, 4-((2S,5R)-2,5-Dimethyl-4-(4-(trifluoromethyl)benzyl)piperazin-1-yl)-1-(((S)-tetrahydrofuran-2-yl)methyl)-1H-[1,2,4]triazolo[3,4-b]purine], the IC50 on DGKζ and on DGKα was under 20 nM each time.

Turning to `CC[C@@H]1CN(c2nc3nncn3c3c2nc(C)n3C[C@@H]2CCCO2)[C@@H](C)CN1[C@@H](C)c1ccc(C(F)(F)F)cc1` [Example 41, 4-((2S,5R)-5-Ethyl-2-methyl-4-((S)-1-(4-(trifluoromethyl)phenyl)ethyl)piperazin-1-yl)-2-methyl-1-(((S)-tetrahydrofuran-2-yl)methyl)-1H-[1,2,4]triazolo[3,4-b]purine], the 50% inhibitory concentration (IC50) at DGKζ and at DGKα was under 20 nM in each case.

With `CC[C@@H]1CN(c2nc3nncn3c3c2nc(C)n3C[C@@H]2CCCO2)[C@@H](C)CN1[C@H](C)c1ccc(C(F)(F)F)cc1` [Example 42, 4-((2S,5R)-5-ethyl-2-methyl-4-((R)-1-(4-(trifluoromethyl)phenyl)ethyl)piperazin-1-yl)-2-methyl-1-(((S)-tetrahydrofuran-2-yl)methyl)-1H-[1,2,4]triazolo[3,4-b]purine], the IC50 on DGKζ and at DGKα was under 20 nM each time.

`C[C@@H]1CN(c2cc3nncn3c3c2ncn3C[C@@H]2CCCO2)[C@@H](C)CN1C(c1ccc(F)cc1)c1ccc(F)cc1` [Example 43, 4-((2S,5R)-4-(Bis(4-fluorophenyl)methyl)-2,5-dimethylpiperazin-1-yl)-1-(((S)-tetrahydrofuran-2-yl)methyl)-1H-imidazo[4,5-e][1,2,4]triazolo[4,3-a]pyridine]: the 50% inhibitory concentration (IC50) on DGKζ and at DGKα was under 20 nM throughout.

Take `C[C@@H]1CN(c2nc3nncn3c3c2ncn3CC2(O)CCCC2)[C@@H](C)CN1C(c1ccc(Cl)cc1)c1ccc(Cl)cc1` [Example 44, 1-((4-((2S,5R)-4-(Bis(4-chlorophenyl)methyl)-2,5-dimethylpiperazin-1-yl)-1H-[1,2,4]triazolo[3,4-b]purin-1-yl)methyl)cyclopentan-1-ol]: the IC50 at DGKζ and on DGKα was under 20 nM in each case.

As to `C[C@@H]1CN(c2nc3nncn3c3c2ncn3CC2(O)CCCC2)[C@@H](C)CN1C(c1ccc(Cl)cc1)C1CC(F)(F)C1` (stereo partly drawn) [Example 45, 1-((4-((2S,5R)-4-((4-Chlorophenyl)(3,3-difluorocyclobutyl)methyl)-2,5-dimethylpiperazin-1-yl)-1H-[1,2,4]triazolo[3,4-b]purin-1-yl)methyl)cyclopentan-1-ol], the IC50 at DGKζ and on DGKα was under 20 nM in each case.

Regarding `C[C@@H]1CN(c2nc3nncn3c3c2ncn3CC2(O)CCCC2)[C@@H](C)CN1C(c1ccc(C(F)(F)F)cc1)C1CC(F)(F)C1` (stereo partly drawn) [Example 46, 1-((4-((2S,5R)-4-((3,3-Difluorocyclobutyl)(4-(trifluoromethyl)phenyl)methyl)-2,5-dimethylpiperazin-1-yl)-1H-[1,2,4]triazolo[3,4-b]purin-1-yl)methyl)cyclopentan-1-ol], the IC50 at DGKζ and on DGKα was under 20 nM throughout.

As for `C[C@@H]1CN(c2nc3nncn3c3c2ncn3C[C@@H]2CCCO2)[C@@H](C)CN1Cc1ccc(Cl)cc1` [Example 47, 4-((2S,5R)-4-(4-Chlorobenzyl)-2,5-dimethylpiperazin-1-yl)-1-(((S)-tetrahydrofuran-2-yl)methyl)-1H-[1,2,4]triazolo[3,4-b]purine], the IC50 at DGKζ and on DGKα was under 20 nM throughout.

Regarding `C[C@@H]1CN(c2nc3nncn3c3c2ncn3C[C@@H]2CCCO2)[C@@H](C)CN1Cc1ccc(Cl)cc1F` [Example 48, 4-((2S,5R)-4-(4-Chloro-2-fluorobenzyl)-2,5-dimethylpiperazin-1-yl)-1-(((S)-tetrahydrofuran-2-yl)methyl)-1H-[1,2,4]triazolo[3,4-b]purine], the half-inhibitory concentration (IC50) at DGKζ and on DGKα was under 20 nM throughout.

`Cc1nc2c(N3C[C@@H](C)N(C(c4ccc(Cl)cc4)C4CC4)C[C@@H]3C)nc3nncn3c2n1C[C@@H]1CCCO1` (stereo partly drawn) [Example 54, 4-((2S,5R)-4-((4-Chlorophenyl)(cyclopropyl)methyl)-2,5-dimethylpiperazin-1-yl)-2-methyl-1-(((S)-tetrahydrofuran-2-yl)methyl)-1H-[1,2,4]triazolo[3,4-b]purine]: the IC50 at DGKζ and on DGKα was under 20 nM each time.

With `CC[C@@H](c1ccc(Cl)cc1)N1C[C@H](C)N(c2nc3nncn3c3c2ncn3C[C@@H]2CCCO2)C[C@H]1C` [Example 57, 4-((2S,5R)-4-((S)-1-(4-Chlorophenyl)propyl)-2,5-dimethylpiperazin-1-yl)-1-(((S)-tetrahydrofuran-2-yl)methyl)-1H-[1,2,4]triazolo[3,4-b]purine], the concentration for half-maximal inhibition (IC50) on DGKζ is 20 to 200 nM; at DGKα it was under 20 nM.

On to `CC[C@H](c1ccc(Cl)cc1)N1C[C@H](C)N(c2nc3nncn3c3c2ncn3C[C@@H]2CCCO2)C[C@H]1C` [Example 58, 4-((2S,5R)-4-((R)-1-(4-chlorophenyl)propyl)-2,5-dimethylpiperazin-1-yl)-1-(((S)-tetrahydrofuran-2-yl)methyl)-1H-[1,2,4]triazolo[3,4-b]purine], for which the IC50 on DGKζ and at DGKα was under 20 nM each time.

As for `CC[C@@H](c1ccc(C(F)(F)F)cc1)N1C[C@H](C)N(c2nc3nncn3c3c2ncn3C[C@@H]2CCCO2)C[C@H]1C` [Example 59, 4-((2S,5R)-2,5-Dimethyl-4-((S)-1-(4-(trifluoromethyl)phenyl)propyl)piperazin-1-yl)-1-(((S)-tetrahydrofuran-2-yl)methyl)-1H-[1,2,4]triazolo[3,4-b]purine], the IC50 on DGKζ and on DGKα was under 20 nM throughout.

For `CC[C@H](c1ccc(C(F)(F)F)cc1)N1C[C@H](C)N(c2nc3nncn3c3c2ncn3C[C@@H]2CCCO2)C[C@H]1C` [Example 60, 4-((2S,5R)-2,5-dimethyl-4-((R)-1-(4-(trifluoromethyl)phenyl)propyl)piperazin-1-yl)-1-(((S)-tetrahydrofuran-2-yl)methyl)-1H-[1,2,4]triazolo[3,4-b]purine], the IC50 on DGKζ and on DGKα was under 20 nM throughout.

As for `Cc1nc2c(N3C[C@@H](C)N([C@H](c4ccc5cc(C(F)(F)F)ccc5n4)C(C)C)C[C@@H]3C)nc3nncn3c2n1C[C@@H]1CCCO1` [Example 63, 4-((2S,5R)-2,5-Dimethyl-4-((S)-2-methyl-1-(6-(trifluoromethyl)quinolin-2-yl)propyl)piperazin-1-yl)-2-methyl-1-(((S)-tetrahydrofuran-2-yl)methyl)-1H-[1,2,4]triazolo[3,4-b]purine], the IC50 at DGKζ and on DGKα was under 20 nM each time.

For the molecule `Cc1nc2c(N3C[C@@H](C)N([C@@H](c4ccc5cc(C(F)(F)F)ccc5n4)C(C)C)C[C@@H]3C)nc3nncn3c2n1C[C@@H]1CCCO1` [Example 64, 4-((2S,5R)-2,5-dimethyl-4-((R)-2-methyl-1-(6-(trifluoromethyl)quinolin-2-yl)propyl)piperazin-1-yl)-2-methyl-1-(((S)-tetrahydrofuran-2-yl)methyl)-1H-[1,2,4]triazolo[3,4-b]purine], the IC50 at DGKζ and at DGKα was under 20 nM in each case.

Consider `Cc1nc2c(N3C[C@@H](C)N([C@H](c4ccc(Cl)cc4)C(C)C)C[C@@H]3C)cc3nncn3c2n1C[C@@H]1CCCO1` [Example 65, 4-((2S,5R)-4-((S)-1-(4-Chlorophenyl)-2-methylpropyl)-2,5-dimethylpiperazin-1-yl)-2-methyl-1-(((S)-tetrahydrofuran-2-yl)methyl)-1H-imidazo[4,5-e][1,2,4]triazolo[4,3-a]pyridine], for which the half-maximal inhibitory concentration (IC50) at DGKζ and on DGKα was under 20 nM in each case.

`Cc1nc2c(N3C[C@@H](C)N([C@@H](c4ccc(Cl)cc4)C(C)C)C[C@@H]3C)cc3nncn3c2n1C[C@@H]1CCCO1` [Example 66, 4-((2S,5R)-4-((R)-1-(4-chlorophenyl)-2-methylpropyl)-2,5-dimethylpiperazin-1-yl)-2-methyl-1-(((S)-tetrahydrofuran-2-yl)methyl)-1H-imidazo[4,5-e][1,2,4]triazolo[4,3-a]pyridine]: the half-inhibitory concentration (IC50) at DGKζ and on DGKα was under 20 nM in each case.

`Cc1nc2c(N3C[C@@H](C)N(C(C)c4ccc(C(F)(F)F)cc4)C[C@@H]3C)nc3nncn3c2n1C[C@@H]1CCCO1` (stereo partly drawn) [Example 67, 4-((2S,5R)-2,5-Dimethyl-4-(1-(4-(trifluoromethyl)phenyl)ethyl)piperazin-1-yl)-2-methyl-1-(((S)-tetrahydrofuran-2-yl)methyl)-1H-[1,2,4]triazolo[3,4-b]purine]: the 50% inhibitory concentration (IC50) at DGKζ and on DGKα was under 20 nM throughout.

The values above are taken from US20250179083A1, “TRICYCLIC TRIAZOLO COMPOUNDS AS DGK INHIBITORS” (Incyte Corporation, priority 2023, published 2025).
